The text below walks through data of ChEMBL document CHEMBL1201862, “PubChem BioAssay data set” (2004).

As a reminder, the GI50 is the concentration that inhibits growth by half.

Common to all, as to test: DTP human tumour cell line panel, 48 h
Experiment [1] concerns UACC-62.
For experiment [2], the system named is SF-295.
Experiment [3] has as its system MOLT-4.
For experiment [4], the system named is EKVX.
The subject of experiment [5] is HCT-116.
In experiment [6] the test system is T47D.
Experiment [7] has as its system BT-549.
The subject of experiment [8] is HCC 2998.
The test system of experiment [9] is RPMI-8226.
Experiment [10] has as its system OVCAR-3.
Experiment [11] deals with UACC-257.
The test system of experiment [12] is SNB-75.
The subject of experiment [13] is OVCAR-5.
Experiment [14] concerns MDA-MB-435.
Experiment [15] deals with OVCAR-8.
The subject of experiment [16] is NCI/ADR-RES.
The test system of experiment [17] is HOP-92.

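Growth conditions: 96-well plates. Treatment: test compound, 48 hours, 5 concentrations. Analysis: linear interpolation between bracketing concentrations; unreached endpoints set to highest concentration. At the GI50, growth is halved.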 Active and inactive are the calls of the source. No stated cut-off is given here; in the data, active = GI50 up to about 1.1 µM and inactive = higher.

As to `C[C@@H]1S[C@H](c2c(F)cccc2Cl)n2c1nc1ccccc12`, the GI50 in [1] is 8.81 µM (inactive); in experiment [2], 18.5 µM (inactive); in experiment [3] it was 5.04 µM (inactive); in experiment [4], 22.1 µM (inactive); in [5], 4.49 µM (inactive); in experiment [6], 22.5 µM (inactive). The GI50 in experiment [7] was 11.6 µM (inactive); in [8] it was 13.6 µM (inactive); in experiment [9] it was 4.44 µM (inactive); in experiment [10], 14.9 µM (inactive); in experiment [11], 14.1 µM (inactive); in experiment [12] it was 16.5 µM (inactive). Besides, the GI50 was 33.4 µM (inactive) in experiment [13]; 12.6 µM (inactive) in experiment [14]; 19 µM (inactive) in experiment [15]; 14.1 µM (inactive) in [16]; > 10 µM (inactive) in experiment [17].
With `NC(=O)NN=C1Cc2ccccc2C1`, the GI50 in experiment [1], in experiment [2], in [3], in experiment [4], in [5] and in experiment [6] was > 100 µM (inactive) each time. The GI50 in [7], in experiment [8], in experiment [9], in experiment [10], in experiment [11] and in [12] was > 100 µM (inactive) in each case. The GI50 in experiment [13], in [14], in experiment [15], in [16] and in [17] was > 100 µM (inactive) each time.
For `CC12CC3(O)OC(O1)C1(COC(=O)c4ccccc4)C3CC21OC1OC(CO)C(O)C(O)C1O` (stereo not drawn), the GI50 in experiment [1], in experiment [2], in experiment [3], in [4], in experiment [5] and in [6] was > 100 µM (inactive) each time. In addition, the GI50 in experiment [7], in experiment [8], in experiment [9], in experiment [10], in experiment [11] and in experiment [13] was > 100 µM (inactive) each time. Besides, the GI50 in experiment [14], in experiment [15], in experiment [16] and in experiment [17] was > 100 µM (inactive) in each case.
As to `O=C(/C=C1\N=C(c2ccccc2)N(c2ccc3c(c2)Sc2cc(N4C(=O)/C(=C/C(=O)/C=C/c5ccccc5)N=C4c4ccccc4)ccc2N3)C1=O)/C=C/c1ccccc1`, the GI50 in [1] was 18.2 µM (inactive); in experiment [2], 23.4 µM (inactive); in experiment [3] it was 41.4 µM (inactive); in experiment [4] it was 85.7 µM (inactive); in [5], > 100 µM (inactive); in experiment [6], 63.7 µM (inactive). For the same compound, the GI50 in experiment [7] is 23.5 µM (inactive); in experiment [8], > 100 µM (inactive); in experiment [9], 31.6 µM (inactive); in experiment [10], 24.9 µM (inactive); in [11], 27.4 µM (inactive); in experiment [12], 17.3 µM (inactive). Further, the GI50 in [13] is 22.4 µM (inactive); in experiment [14], 22 µM (inactive); in [15] it was 42.5 µM (inactive); in [16], 41.6 µM (inactive); in [17], 67.5 µM (inactive).
`O=S(=O)(NC(c1ccccc1)(c1cc2ccccc2[nH]1)c1cc2ccccc2n1S(=O)(=O)c1ccccc1)c1ccccc1` (stereo not drawn): the GI50 in experiment [1], in experiment [2], in [3], in experiment [4], in experiment [5] and in [6] was > 100 µM (inactive) in each case. The GI50 in [7] is > 100 µM (inactive); in [8], > 100 µM (inactive); in experiment [9], 52.1 µM (inactive); in experiment [10] it was 91.8 µM (inactive); in experiment [11], > 100 µM (inactive); in [12], > 100 µM (inactive). Moreover, the GI50 in experiment [13], in [14], in [15], in [16] and in experiment [17] was > 100 µM (inactive) in each case.
Take `CCOP1(=O)CC(C)=C(Cl)C(O)C1` (stereo not drawn): the GI50 in experiment [1], in [2], in experiment [3], in [4], in experiment [5] and in [6] was > 100 µM (inactive) in each case. The GI50 in experiment [7] is > 100 µM (inactive); in experiment [8], > 100 µM (inactive); in experiment [9], > 100 µM (inactive); in experiment [10], > 100 µM (inactive); in experiment [11] it was > 100 µM (inactive); in [12], 40.3 µM (inactive). The GI50 in [13], in experiment [14], in [15], in [16] and in experiment [17] was > 100 µM (inactive) throughout.
For `Cc1nc2c(O)c3c(c(O)c2nc1C)C1C=CC3CC1`, the GI50 in experiment [1] is 21.2 µM (inactive); in [2], 29.7 µM (inactive); in [3], 1.06 µM (active); in [4], 11 µM (inactive); in experiment [5], 6.27 µM (inactive); in [6], 2.79 µM (inactive). In addition, the GI50 in experiment [7] is 15.7 µM (inactive); in experiment [8], > 40.2 µM (inactive); in experiment [9] it was 2.92 µM (inactive); in [10], 6.22 µM (inactive); in experiment [11], 7.24 µM (inactive); in [12], 32.2 µM (inactive). Besides, the GI50 in [13] is 18.3 µM (inactive); in experiment [14], 3.04 µM (inactive); in experiment [15], 7.45 µM (inactive); in experiment [16] it was 3.71 µM (inactive); in experiment [17], 2.9 µM (inactive).
As for `c1ccc2c(OCC3CO3)ccc(OCC3CO3)c2c1` (stereo not drawn), the GI50 was 3.06 µM (inactive) in [1]; 2.86 µM (inactive) in [2]; 0.352 µM (active) in experiment [3]; 17.4 µM (inactive) in [4]; 1.36 µM (inactive) in experiment [5]; 1.91 µM (inactive) in experiment [6]. Moreover, the GI50 was 6.49 µM (inactive) in [7]; 11.8 µM (inactive) in experiment [8]; 3.04 µM (inactive) in [9]; 1.38 µM (inactive) in experiment [10]; 7.14 µM (inactive) in [11]; 14.6 µM (inactive) in [12]. Further, the GI50 in experiment [13] was 11.2 µM (inactive); in experiment [14], 2.44 µM (inactive); in [15], 2.2 µM (inactive); in experiment [16], 4.18 µM (inactive); in experiment [17] it was 5.57 µM (inactive).
Turning to `COc1ccc(NC/C=C/C(=C/COC(C)=O)OC(C)=O)cc1`, the GI50 in experiment [1] was 3.82 µM (inactive); in experiment [2], 2.12 µM (inactive); in experiment [3], 4.75 µM (inactive); in experiment [4] it was 2.03 µM (inactive); in experiment [5], 1.81 µM (inactive); in [6] it was 2.41 µM (inactive). Also, the GI50 in experiment [7] is 1.59 µM (inactive); in experiment [8] it was 3.03 µM (inactive); in experiment [9] it was 0.252 µM (active); in experiment [10] it was 2 µM (inactive); in [11], 2.24 µM (inactive); in [12] it was 7.23 µM (inactive). Also, the GI50 in experiment [13] was 1.75 µM (inactive); in experiment [14] it was 1.73 µM (inactive); in experiment [15], 4.23 µM (inactive); in experiment [16] it was 2.59 µM (inactive); in experiment [17] it was 1.8 µM (inactive).
Take `O=C1C(Cl)=C(NCCO)C(=O)c2c(O)ccc(O)c21`: the GI50 in [1] is 1.7 µM (inactive); in experiment [2], 1.95 µM (inactive); in experiment [3] it was 3.33 µM (inactive); in experiment [4], 6.37 µM (inactive); in experiment [5] it was 1.95 µM (inactive); in [6], 4.24 µM (inactive). The GI50 was 4.26 µM (inactive) in experiment [7]; 3.1 µM (inactive) in experiment [8]; 3.12 µM (inactive) in experiment [9]; 2.76 µM (inactive) in experiment [10]; 1.33 µM (inactive) in experiment [11]; 4.38 µM (inactive) in [12]. Moreover, the GI50 in experiment [13] is 2.37 µM (inactive); in experiment [14] it was 2.17 µM (inactive); in experiment [15] it was 3.84 µM (inactive); in experiment [16], 5.18 µM (inactive); in [17], > 10 µM (inactive).
For `OCC1OC(n2cnc3c(SCc4ccccc4)ncnc32)C(O)C1O` (stereo not drawn), the GI50 was 98.9 µM (inactive) in experiment [1]; > 74.1 µM (inactive) in experiment [2]; 0.773 µM (active) in experiment [3]; > 68.5 µM (inactive) in experiment [4]; 5.45 µM (inactive) in experiment [5]; 40.5 µM (inactive) in experiment [6]. The GI50 in experiment [7] is 16.6 µM (inactive); in experiment [8], 8.24 µM (inactive); in experiment [9] it was 19.4 µM (inactive); in experiment [10], 6.61 µM (inactive); in [11], > 100 µM (inactive); in experiment [12] it was > 100 µM (inactive). Besides, the GI50 was > 96.2 µM (inactive) in experiment [13]; > 100 µM (inactive) in [14]; 1.04 µM (active) in experiment [15]; 10.2 µM (inactive) in experiment [16]; 4.75 µM (inactive) in experiment [17].
On to `Cc1ccc(/N=N/c2c(O)ccc3cc(S(=O)(=O)O)cc(S(=O)(=O)O)c23)cc1`, for which the GI50 in experiment [1], in experiment [2], in experiment [3], in [4], in experiment [5] and in experiment [6] was > 100 µM (inactive) in each case. Also, the GI50 in experiment [7] was > 100 µM (inactive); in experiment [8], > 100 µM (inactive); in experiment [9], < 0.01 µM (active); in experiment [10], > 100 µM (inactive); in experiment [11], > 100 µM (inactive); in [12], > 100 µM (inactive). For the same compound, the GI50 in experiment [13], in experiment [14], in [15], in experiment [16] and in experiment [17] was > 100 µM (inactive) each time.
